This is an account of results in patent US10660874B2, “Ecteinamycin, compositions and uses thereof” (Wisconsin Alumni Research Foundation, priority 2014, dated 2020).

One series concerns C. difficile. The conditions noted are these: reported; cited from earlier work.
Series [1] concerns S. aureus (ATCC #29213) cells. Briefly: Membrane depolarization assay (DiOC2(3), flow cytometry). It counts as cell-based. The conditions noted are these: positive control, 10 μL of 500 μM in 1 mL. The method, then:
S. aureus (ATCC #29213) cells were grown to log phase (14 h) in Mueller Hinton Broth cation-adjusted (MHB50) and were diluted to 0.07 OD600 with media. One mL aliquots were transferred to 1.5 mL centrifuge tubes and treated with the following in triplicate: 10 μL DMSO (control), 10 μL of 600 μg/mL ecteinamycin, 10 μL of 3.2 mg/mL ecteinamycin (1), 10 μL of 500 μM carbonyl cyanide m-chlorophenythydrazone (CCCP), and 10 μL of 3.2 mg/mL rifampicin. Additionally, each tube received 10 μL of 3 mM DiOC2(3) (3,3′-diethyloxacarbocyanine iodide). The tubes were shaken for 15 minutes at room temperature. The cells were then analyzed with a FACSCalibur (BD Biosciences) flow cytometer and CellQuestPro software (BD Biosciences). Collected data represent the geometric means of fluorescence of 40,000 gated events.
Flow cytometry was used to determine if ecteinamycin, like other polyether ionophore antibiotics, depolarizes cell membranes. 3,3′-diethyloxacarbocyanine iodide (“DiOC2(3)”) fluoresces green in bacterial cells but shifts to red when the cell membrane is depolarized. Therefore, the ratio of red to green fluorescence is indicative of the membrane potential. S. aureus ATCC […] cells were treated with ecteinamycin at concentrations of 6 and 32 μg/mL.
All cells except the DMSO negative control were treated with DiOC2(3) and analyzed by flow cytometry. […]

For series [2] the following is noted: in vivo; cited from earlier work.
A further series relates to MSSA (ATCC #29213). Put plainly: MIC, dilution antimicrobial susceptibility test. Type of series: cell-based, Methicillin-sensitive Staphylococcus aureus. As to conditions: Staphylococcus aureus, 18 h. The procedure:
(§1) Ecteinamycin was tested for antibacterial activity against C. difficile (ATCC BAA-1870), MRSA (ATCC #33591), MSSA (ATCC #29213), E. coli (ATCC #25922), P. aeruginosa (ATCC #27853), and VRE (ATCC), and MICs were determined using a dilution antimicrobial susceptibility test for aerobic (MRSA, MSSA, E. coli, P. aeruginosa, and VRE) and anaerobic (C. difficile) bacteria. Ecteinamycin was dissolved in DMSO, serially diluted to 10 concentrations (0.0313-32 μg/mL), and tested in a 96-well plate. […] Ecteinamycin and vancomycin were tested in triplicate. Six untreated media controls were included on each plate. For MRSA, MSSA, E. coli, and P. aeruginosa, the plates were incubated at 33° C. for 18 h. For C. difficile, the plate was incubated at 36° C. for 48 h anaerobically and then read visually using a mirror apparatus. All manipulations to the plate were done inside the anaerobe chamber. The MIC was determined as the lowest concentration that inhibited visible growth.

The subject of a further series is MRSA (ATCC #33591). Briefly: MIC, dilution antimicrobial susceptibility test. It counts as cell-based, Methicillin-resistant Staphylococcus aureus. As to conditions: Staphylococcus aureus, 18 h. The procedure:
as §1

Converted amounts (≈) assume the structure as drawn.

Turning to `CO[C@@H]1C[C@@H](C[C@H]2CC[C@H](C)[C@H]([C@@H](C)C(=O)O)O2)O[C@]2(O[C@](C)([C@H]3CC[C@@](C)([C@@H]4O[C@@H]([C@H]5O[C@@](O)(CO)[C@H](C)C[C@@H]5C)C[C@@H]4C)O3)C[C@H]2C)[C@@H]1C` [Nigericin], the MIC in the series with C. difficile was 0.0025 µg/mL (≈ 0.00345 µM). `N#CC(C#N)=NNc1cccc(Cl)c1` [CCCP, carbonyl cyanide m-chlorophenylhydrazone, reference compound]: in series [1], the “membrane depolarization (ratio of red to green fluorescence)” value was “membrane depolarization to a greater extent than ecteinamycin”. Regarding `CC[C@@]1([C@@H]2O[C@@H]([C@H]3O[C@@](O)(CO)[C@H](C)C[C@@H]3C)C[C@@H]2C)CC[C@H]([C@]2(C)CC[C@]3(C[C@H](O)[C@@H](C)[C@@H]([C@@H](C)[C@@H](OC)[C@H](C)C(=O)O)O3)O2)O1` [monensin], the MIC in the series on C. difficile was 0.5 µg/mL (≈ 0.745 µM). In series [2], the oral bioavailability is given as 30%. `CN[C@H](CC(C)C)C(=O)N[C@H]1C(=O)N[C@@H](CC(N)=O)C(=O)N[C@H]2C(=O)N[C@H]3C(=O)N[C@H](C(=O)N[C@H](C(=O)O)c4cc(O)cc(O)c4-c4cc3ccc4O)[C@H](O)c3ccc(c(Cl)c3)Oc3cc2cc(c3O[C@@H]2O[C@H](CO)[C@@H](O)[C@H](O)[C@H]2O[C@H]2C[C@](C)(N)[C@H](O)[C@H](C)O2)Oc2ccc(cc2Cl)[C@H]1O` [Vancomycin, reference compound]: the MIC against MSSA (ATCC #29213) and in the series on MRSA (ATCC #33591) was 1 µg/mL (≈ 0.69 µM) throughout.
